{"source": "PubChem BioAssay AID397", "about": "(SGCOxCompounds, 2006)", "data": [{"molecular_target": "GTP-binding protein GEM (Homo sapiens) (UniProt P55040)", "sequence (P55040 whole entry, looked up)": "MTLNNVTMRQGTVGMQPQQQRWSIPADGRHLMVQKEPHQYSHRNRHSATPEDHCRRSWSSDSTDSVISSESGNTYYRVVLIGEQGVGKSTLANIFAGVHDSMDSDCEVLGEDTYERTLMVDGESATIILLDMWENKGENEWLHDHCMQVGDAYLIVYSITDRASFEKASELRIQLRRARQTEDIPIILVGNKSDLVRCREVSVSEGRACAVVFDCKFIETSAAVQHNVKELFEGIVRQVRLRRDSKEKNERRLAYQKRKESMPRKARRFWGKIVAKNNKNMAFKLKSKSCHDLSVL", "test": "ligand-induced stabilization of human GEM GTPase – biophysical, DSF, SYPRO orange, purified protein (AID 397)", "details": "DSF SYPRO orange thermal shift, at 10 µM, protein 2 µM, buffer 10 mM HEPES, pH 7.5, NaCl 150 mM, DTT 1 mM, GDP 40 µM, MgCl 1 mM, stronger effect = higher value", "units": {"Tm shift": "Celsius"}, "values": [{"smiles": "O=C1NC(=O)c2c1c1c3ccccc3[nH]c1c1[nH]c3cc(Br)ccc3c21", "Tm shift": 3.1}]}, {"molecular_target": "GTP-binding protein GEM (Homo sapiens) (UniProt P55040)", "test": "ligand-induced stabilization of human GEM GTPase – biophysical, DSF, SYPRO orange, purified protein (AID 397)", "details": "DSF SYPRO orange thermal shift, at 10 µM, protein 2 µM, buffer 10 mM HEPES, pH 7.5, NaCl 150 mM, DTT 1 mM, stronger effect = higher value", "units": {"Tm shift": "Celsius"}, "values": [{"smiles": "Nc1cc2ncnc(Nc3cccc(Br)c3)c2cc1N", "Tm shift": 3.5}, {"smiles": "CN(C)S(O)(O)c1ccc2c(c1)/C(=C/c1cc3c([nH]1)CCCC3)C(=O)N2", "Tm shift": 3.1}, {"smiles": "NC(=O)c1ccc(-c2nc(-c3ccc4c(c3)OCCO4)c(-c3ccccn3)[nH]2)cc1", "Tm shift": 4.5}, {"smiles": "O=c1cc(-c2ccc(O)cc2)oc2cc(O)cc(O)c12", "Tm shift": 4.1}, {"smiles": "COC(=O)/C=C/c1cc(O)ccc1O", "Tm shift": 3.2}, {"smiles": "NC1=N/C(=C2/CCNC(=O)c3[nH]c(Br)cc32)C(=O)N1", "Tm shift": 3.1}, {"smiles": "O=c1c(-c2ccc(O)cc2)coc2cc(O)cc(O)c12", "Tm shift": 5}, {"smiles": "COc1cc2ncnc(Nc3cccc(Br)c3)c2cc1OC", "Tm shift": 5.4}, {"smiles": "CN(C)CCCn1cc(C2=C(c3c[nH]c4ccccc34)C(=O)NC2=O)c2ccccc21", "Tm shift": 3.2}, {"smiles": "Oc1ccc(-c2nc(-c3ccc(F)cc3)c(-c3ccncc3)[nH]2)cc1", "Tm shift": 6}]}, {"molecular_target": "GTP-binding protein GEM (Homo sapiens) (UniProt P55040)", "test": "ligand-induced stabilization of human GEM GTPase – biophysical, DSF, SYPRO orange, purified protein (AID 397)", "details": "DSF SYPRO orange thermal shift, at 10 µM, protein 2 µM, buffer 10 mM HEPES, pH 7.5, NaCl 150 mM, DTT 1000 µM, with dithiothreitol, stronger effect = higher value", "units": {"Tm shift": "Celsius"}, "values": [{"smiles": "O=S(=O)(c1cccc2c(Cl)cccc12)N1CCCNCC1", "Tm shift": 2.8}, {"smiles": "N#C/C(=C(/N)Sc1ccc(N)cc1)c1ccccc1C(F)(F)F", "Tm shift": 2.8}, {"smiles": "C/C(O)=C(\\C#N)C(=O)Nc1cc(Br)ccc1Br", "Tm shift": 2.2}, {"smiles": "Oc1cc(O)cc(/C=C/c2ccc(O)c(O)c2)c1", "Tm shift": 2.3}, {"smiles": "CC[C@H](CO)Nc1nc(NCc2ccccc2)c2ncn(C(C)C)c2n1", "Tm shift": 2.1}, {"smiles": "CC(C)(C)c1nc2c3cc[nH]c(=O)c3c3cc(F)ccc3c2[nH]1", "Tm shift": 3}, {"smiles": "CC(C)n1cnc2c(Nc3cccc(Cl)c3)nc(NCCO)nc21", "Tm shift": 2.3}, {"smiles": "C=C(Nc1cc(NC(=O)c2cccc(N(C)C)c2)ccc1C)c1ccc(O)cc1", "Tm shift": 2.8}, {"smiles": "CCCCc1c(-c2ccc(O)cc2)[nH]c2nccnc12", "Tm shift": 2.7}, {"smiles": "Ic1cccc(CSc2nnc(-c3ccncc3)o2)c1", "Tm shift": 2.4}, {"smiles": "N#CC(Cc1ccc(O)c(O)c1)C(=O)Nc1ccccc1", "note": "(stereo unspecified)", "Tm shift": 2.7}, {"smiles": "CC(O)(O)C1(O)C[C@@H]2O[C@@]1(C)n1c3ccccc3c3c4c(c5c6ccccc6n2c5c31)C(=O)NC4", "note": "(stereo partly specified)", "Tm shift": 3}, {"smiles": "O=C1Nc2ccccc2/C1=C\\c1cnc[nH]1", "Tm shift": 2.5}, {"smiles": "Nc1[nH]nc2nc3ccccc3nc12", "Tm shift": 2.5}]}, {"molecular_target": "GTP-binding protein GEM (Homo sapiens) (UniProt P55040)", "test": "ligand-induced stabilization of human GEM GTPase – biophysical, DSF, SYPRO orange, purified protein (AID 397)", "details": "DSF SYPRO orange thermal shift, at 10 µM, protein 2 µM, buffer 10 mM HEPES, pH 7.5, NaCl 150 mM, GDP 40 µM, stronger effect = higher value", "units": {"Tm shift": "Celsius"}, "values": [{"smiles": "Brc1c(Br)c(Br)c2n[nH]nc2c1Br", "Tm shift": 2.5}, {"smiles": "COc1cc(O)c2c(c1)oc(=O)c1c3cc(O)c(O)cc3oc21", "Tm shift": 2.3}, {"smiles": "COc1cc(/C=C/C(=O)CC(=O)/C=C/c2ccc(O)c(OC)c2)ccc1O", "Tm shift": 2.4}]}, {"molecular_target": "GTP-binding protein GEM (Homo sapiens) (UniProt P55040)", "test": "ligand-induced stabilization of human GEM GTPase – biophysical, DSF, SYPRO orange, purified protein (AID 397)", "details": "DSF SYPRO orange thermal shift, at 10 µM, protein 2 µM, buffer 10 mM HEPES, pH 7.5, NaCl 150 mM, stronger effect = higher value", "units": {"Tm shift": "Celsius"}, "values": [{"smiles": "Cc1ccc(NC(=O)c2snc3c(=O)[nH]cnc23)cc1", "Tm shift": 2.1}, {"smiles": "CCOc1c(Br)ccc2c1sc1nc[nH]c(=O)c12", "Tm shift": 3.1}, {"smiles": "Cc1ccc2c(c1Br)C(=Nc1ccc(Cl)cc1)C(=O)N2", "Tm shift": 2.3}]}]}
